The values that follow come from patent US9494572B2, “Method and compositions for treating cancer and related methods” (Icahn School of Medicine at Mount Sinai, priority 2011, dated 2016).

Molecules are shown by their SMILES. pIC50: −log10 of the molar value. Read-outs that look alike come from different tables or passages of the source.

The subject of experiment [1] is KLF6. Nature of the experiment: KLF6 mRNA and protein expression in H1650. Type of experiment: cell-based, human. As to conditions: 40 μM TFP, 1 h and 48 h. The procedure: (§1) RNA was isolated from cell lines and tumor samples using the RNeasy Mini Kit (Qiagen) as per manufacturer's instructions. For each PCR reaction, 1 μg RNA was reverse transcribed using iScript cDNA synthesis kit (BioRad Laboratories). Each cDNA sample was subjected to sequence-specific partial amplification with specific primers and the SYBR green PCR Master Mix (Applied Biosystems) on an ABI PRISM 7900HT plate-reader instrument. […] The following primers were also used: FOXO1 forward 5′ […]
(§2) The role of KLF6 in induction of apoptosis in response to anti-EGFR therapeutics was further tested in cell culture.

Experiment [2] has as its system H1650 cell line. Nature of the experiment: Apoptosis (FACS sub-G1, cleaved PARP and Caspase 3) in H1650. Type of experiment: cell-based, human. How it is done: (§3) Cells treated with drug or transfected with siRNA were stained with propidium iodide to ascertain DNA content and determine cell cycle distribution within the cell population as previously described. […] Sub-G1 peaks were analyzed on DNA histograms; hypo diploid DNA represented dead cells. This fraction indicated apoptotic as well as necrotic cells. Apoptosis was further validated by Caspase 3 and PARP cleavage through western blotting.
as §2

The conditions of experiment [3]: cited from earlier work.
Experiment [4] deals with FOXO1. Nature of the experiment: Nuclear cytoplasmic fractionation of H1650. Type of experiment: cell-based, human. As to conditions: 20 μM, 1 h. The procedure: H1650 cells were seeded and grown to 60-70% confluency, and treated with increasing doses of TFP. Cell lysates were extracted using NE-PER Nuclear and Cytoplasmic Extraction Reagents (Thermo Scientific) according to supplier's protocol.
Trifluoperazine Hydrochloride (TFP), a FDA-approved antipsychotic and antiemetic, is an effective nuclear export inhibitor of the FOXO1 transcription factor that increases FOXO1 nuclear localization via calmodulin inhibition upstream of AKT and downstream of PI3K. Kau, T. R., et al. Cancer Cell 4, 463-476 (2003). TFP was used to inhibit nuclear export of FOXO1 and determine if activation of the FOXO1/KLF6 transcriptional network could restore sensitivity to the PTEN-depleted, erlotinib-resistant cell line, H1650. To examine the effect of TFP on nuclear localization of FOXO1 and, subsequently, KLF6 expression, H1650 cells were treated for 1 h with increasing doses of TFP (0, 20 μM, 40 μM) and fractionated into nuclear and cytoplasmic fractions. BRCA1 served as a nuclear marker and GAPDH served as a cytoplasmic marker for the fractionation.

The test system of experiment [5] is H1650 xenograft tumors. Description: Tumorgenicity assay, H1650 xenograft. Type of experiment: in vivo, nude mice. The conditions noted are these: i.p., erlotinib 25 mg/kg, TFP 10 mg/kg, four treatments.
Experimental: H1650 cells (5×10^6) were similarly injected into the right flank of 6 to 8-week old female BALB/c nu/nu mice. Tumor volume was assessed weekly as previously described by Sangodkar, J., et al., supra until volumes reached an average of 200 mm^3. […] A total of four treatments were given with a 48 h rest period.
Tumor growth was measured weekly until average tumor volume for all mice was approximately 200 mm^3. […] Tumor growth in H1650-injected nude mice was measured 24 hours after each drug injection. […] Lysate homogenates from treated and untreated tumors were run and probed in parallel (n=5); statistical significance of densitometry calculations indicated (*P<0.05; **P<0.01; ***P<0.001).
Experiment [6] relates to FOXO1. Nature of the experiment: FOXO1 immunocytochemistry in H1650 cells. The conditions noted are these: 20 μM, 48 hours, vs untreated.
Experimental: Viability of cells line H1650, A549luc and H3255 were determined for cells grown in control medium and medium supplemented with 10 μM, 20 μM and 40 μM chlorpromazine.
H1650 cells were plated on glass coverslips at a density of 150,000 cells in complete RPMI media. […] After incubation with a secondary goat anti-Rabbit IgG (1:1000), (H+L) FITC conjugate (Millipore, P307F), cover slips were mounted with Vectashield DAPI counterstain (H1200) and visualized under fluorescent microscope. A total of 100 cells per condition were counted to determine the distribution of FOXO1 in the cytoplasm vs. the nucleus.
Experiment [7] concerns H3255. Nature of the experiment: Cell viability, H3255. Type of experiment: cell-based. As to conditions: Homo sapiens, NCI-H3255.
Experiment [8] has as its system H1650. Nature of the experiment: Cell viability, H1650. Type of experiment: cell-based. The conditions noted are these: Homo sapiens, NCI-H1650.
Experiment [9] concerns A549luc. Nature of the experiment: Cell viability, A549luc. In kind it is cell-based. The conditions noted are these: Homo sapiens.
In experiment [10] the test system is ERK and AKT.
Text: (§5) The variable sensitivity of the lung adenocarcinoma cell lines to anti-EGFR-based therapy was used to determine the effects of EGFR inhibition on KLF6 gene transcription.
Experiment [11] has as its system shLuc-HCC827. Description: Clonogenic assay, shLuc-HCC827. In kind it is cell-based, human. The conditions noted are these: control shLuc; 50 nM; 7 days. How it is done: HCC827 shLuc and shKLF6 were plated at a low density in 6-well plates. […] Cells were fixed and then stained with 1% crystal violet staining solution.
For experiment [12], the system named is KLF6. Nature of the experiment: KLF6 mRNA and protein expression in A549. The conditions noted are these: 1 μM 72 h. In kind it is cell-based, human. The procedure: as §1
The subject of experiment [13] is KLF6. Description: KLF6 mRNA and protein expression in H2122. In kind it is cell-based, human. As to conditions: 1 μM 72 h. The procedure: as §1
For experiment [14], the system named is ERK and AKT. The source holds these as a separate data set.
Text: as §5
The subject of experiment [15] is KLF6. Nature of the experiment: KLF6 mRNA and protein expression (qRT-PCR, western) in HCC827. In kind it is cell-based, human. How it is done:
as §1
In general terms: Real-time PCR tracks product formation cycle by cycle.

In experiment [16] the test system is HCC827 cell line. The procedure: as §3
(§4) In addition, dysregulated activity of downstream mediators of EGFR signaling, such as PTEN, PI3K and K-Ras or amplification of the MET proto-oncogene can also drive the resistant phenotype.

Experiment [17] has as its system P-EGFR, P-AKT, P-FOXO1, T-FOXO1. Nature of the experiment: Western blot of EGFR-AKT-FOXO1 signaling in HCC827. In kind it is cell-based, human. How it is done: EGFR activates two major downstream pathways, the Ras-Raf-MAPK and the PI3K-AKT signaling cascades, resulting in both increased cellular proliferation and survival. […] The role of PI3K-AKT signaling cascade was tested utilizing an antagonist of AKT signaling that acts by inhibiting of the PDK1 and 2 kinases that activate AKT.
(In general: A western blot detects proteins with antibodies after separation by electrophoresis.)

In experiment [18] the test system is H2122 cell line. Description: Apoptosis (FACS sub-G1 fraction, cleaved PARP) in H2122. In kind it is cell-based, human. The procedure:
as §3, §4

The test system of experiment [19] is FOXO1 and KLF6. Type of experiment: cell-based, human.
Experiment [20] concerns EGFR^L858R mutant mouse-derived tumors. As to conditions: in vivo.
In experiment [21] the test system is A549 cell line. Description: Apoptosis (FACS sub-G1 fraction, cleaved PARP) in A549. In kind it is cell-based, human. How it is done:
as §3, §4

In experiment [22] the test system is H1975 cell line. Description: Apoptosis (FACS sub-G1 fraction, cleaved PARP) in H1975. Type of experiment: cell-based. As to conditions: Homo sapiens, NCI-H1975; H1975 (T790M EGFR); 72 h; read-out: IC50, erlotinib-mediated apoptosis. How it is done: as §3, §4

In the case of `CN1CCN(CCCN2c3ccccc3Sc3ccc(C(F)(F)F)cc32)CC1` [TFP, 10-[3-(4-methylpiperazin-1-yl)propyl]-2-(trifluoromethyl)-10H-phenothiazine], in experiment [1], the “KLF6 mRNA and protein” value was “upregulation of KLF6 mRNA and protein”. For the same compound, in [2] (40 μM TFP, 1 h), the “Apoptosis (FACS, cleaved PARP, cleaved Caspase 3)” value was “increased apoptosis”. The “average daily clinical dose for CNS effect” value (“average daily clinical dose” below) in [3] is 0.3 µmol/kg. In addition, the “Nuclear FOXO1 expression” value in [4] was “increased nuclear FOXO1 expression”. In addition, in experiment [5], the Tumor growth rate result is given as “decreased”.
Turning to `CN(C)CCCN1c2ccccc2Sc2ccc(Cl)cc21` [chlorpromazine, 3-(2-chloro-10H-phenothiazin-10-yl)-N,N-dimethyl-propan-1-amine], the “Apoptosis (sub-G1 propidium iodide staining)” value in experiment [2] (increasing doses of CPZ, 48 hrs) is “increased amount of apoptosis”. Moreover, in experiment [6], the “Nuclear accumulation of FOXO1” value was “significant nuclear accumulation of FOXO1”. In addition, in [3], the “average daily clinical dose” value is 12 µmol/kg. For the same compound, the pIC50 is 5.10 in experiment [7], 4.70 in experiment [8] and 4.70 in experiment [9].
As to `C#Cc1cccc(Nc2ncnc3cc(OCCOC)c(OCCOC)cc23)c1` [erlotinib, [6,7-bis(2-methoxyethoxy)-4-quinazolin-4-yl]-(3-ethynylphenyl) amine], the “Downstream ERK signaling” value in [10] and in experiment [14] was “no changes in downstream ERK signaling” in each case. The Colony formation entry in [11] is recorded as “decreased colony formation”. In addition, the “KLF6 expression, mRNA and protein” value in [12] and in experiment [13] was “still upregulated” throughout. Further, the KLF6 expression entry in experiment [15] is “significant upregulated”. The “KLF6 gene expression, endogenous mRNA and protein” value in experiment [15] is on record as “Significant upregulation”. The “Apoptosis (sub-G1 propidium iodide staining, cleaved PARP)” value in experiment [2] (1 μM erlotinib, 48 h) is given as “no increase in apoptosis”; in experiment [16], “significantly increased levels of apoptosis”. Moreover, the “Cleaved PARP” value in experiment [16] is “increased cleaved PARP”. Also, the “Phosphorylated EGFR, AKT and FOXO1” value in experiment [17] is “reduced phosphorylated forms of EGFR, AKT and FOXO1”. Besides, in [17], the “Total FOXO1” value was “increased total amount of FOXO1”. Also, the Induction of apoptosis entry in experiment [18] (H2122) and in [21] (A549) was “did not result in a significant induction of apoptosis” in each case. For the same compound, the negative-log IC50 (pIC50) in experiment [18] (Homo sapiens, NCI-H2122, 72 h, read-out: IC50, erlotinib-mediated apoptosis) was below 6.30; in experiment [21] (Homo sapiens, A549, 72 h, read-out: IC50, erlotinib-mediated apoptosis), below 6.30; in [22] it was below 6.30. The “Nuclear localization of FOXO1 and KLF6” value in experiment [19] was “increased”. For the same compound, the “KLF6 expression in tumors” value in experiment [20] was “increased KLF6 expression at both the mRNA and protein level”. For the same compound, the “Spontaneous apoptosis, Caspase 3 cleavage in tumors” value in experiment [20] is “increased Caspase 3 cleavage”. Also, the Tumor growth rate entry in experiment [5] is given as “increased”.
For `OCCN1CCN(CC/C=C2/c3ccccc3Sc3ccc(C(F)(F)F)cc32)CC1` [flupentixol], in [3], the “average daily clinical dose” value is 0.01 µmol/kg.
In the case of `OCCN1CCN(CCCN2c3ccccc3Sc3ccc(C(F)(F)F)cc32)CC1` [fluphenazine], the “average daily clinical dose” value in [3] was 0.17 µmol/kg.
Consider `OCCN1CCN(CCCN2c3ccccc3Sc3ccc(Cl)cc32)CC1` [perphenazine], for which the “average daily clinical dose” value in experiment [3] is around 1 µmol/kg.
Take `CN(C)CCCN1c2ccccc2Sc2ccccc21` [promazine]: the average daily clinical dose for CNS effect in [3] is 33 µmol/kg.
Turning to `CSc1ccc2c(c1)N(CCC1CCCCN1C)c1ccccc1S2` (stereo not drawn) [thiordazine], the “average daily clinical dose” value in experiment [3] is 13 µmol/kg.
As for `CN(C)CCCN1c2ccccc2Sc2ccc(C(F)(F)F)cc21` [triflupromazine], the “average daily clinical dose” value in [3] was 6 µmol/kg.
On to `OCCN1CCN(CC/C=C2/c3ccccc3Sc3ccc(Cl)cc32)CC1` [zuclopenthixol], for which the “average daily clinical dose” value in experiment [3] was around 0.05 µmol/kg.

A word on the pIC50: it is the IC50 on a negative log10 scale, so that one unit is a factor of ten.
